{"source": "patent US11198710B2", "about": "“Transgenic plant having herbicide resistance” (priority 2016, dated 2021)", "key": {"[1]": {"system": "Arabidopsis thaliana plant comprising the TaQ8GTC0 gene introduced therein", "test": "Sensitivity of Arabidopsis thaliana comprising the TaQ8GTC0 gene to herbicides on MS agar medium", "assay_type": "in vivo", "conditions": "for growth of the Arabidopsis thaliana plant comprising the TaQ8GTC0 gene: KLB-718 1-1-5, 22° C.", "method": "A medium was prepared as described below, so as to examine the pyroxasulfone resistance of the Arabidopsis thaliana plant comprising the TaQ8GTC0 gene introduced therein. At the outset, the Murashige-Skoog (MS) media (1 bag), thiamin hydrochloride (3 mg), nicotinic acid (5 mg), pyridoxin hydrochloride (0.5 mg), and sucrose (10 g) were added into a 1-liter beaker, a pH was adjusted to 5.7, the volume of the content was adjusted to 1 liter, and 8 g (0.8%) of agar was added. The resultant was autoclaved and cooled to room temperature, and pyroxasulfone (an acetone solution) was added thereto. A 30-ml fraction thereof was fractionated into a No. 2 square plate to prepare an MS medium containing pyroxasulfone at a given concentration.\nPyroxasulfone sensitivity of transgenic Arabidopsis thaliana plants was tested with the use of the medium prepared above as described below. A necessary amount of Arabidopsis thaliana dry seeds was agitated in 70% ethanol for 2 minutes and in hypochlorous acid containing 0.02% Triton-X-100 for 15 minutes, followed by washing with sterile water 10 times. Subsequently, the seeds were suspended in 1 ml of the autoclaved 0.1% agar solution, the suspension was thoroughly mixed to prepare a homogeneous solution, and a total of 30 seeds were each placed on the medium surface. The resultant was sealed with a surgical tape, allowed to stand at 4° C. for 2 days, and then transferred to 22° C. for germination.\nOn the basis of the concentrations above, sensitivity of the Arabidopsis thaliana plant comprising the TaQ8GTC0 gene introduced therein to VLCFAE-inhibiting herbicides was examined. The results are show in FIGS. 13 and 14. The photographs shown in FIGS. 13 and 14 were taken after the plants were grown at 22° C. for 14 days."}, "TaQ8GTC1-R protein": {"system": "TaQ8GTC1-R protein", "test": "Glutathione conjugation activity of the TaQ8GTC1-R protein to pyroxasulfone (HPLC)", "assay_type": "biochemical, wheat", "conditions": "30° C., 1 hour", "method": "The glutathione conjugation activity to pyroxasulfone was measured in a reaction mixture (200 μl in total) containing 50 μl of 100 mM potassium phosphate buffer (pH 6.8), 10 μl of 1 mM pyroxasulfone (acetone solution), 20 μl of 10 mM reduced glutathione (pH 7.0), and 120 μl of the TaQ8GTC1-R protein (PBS solution containing 20% glycerol), the reaction was conducted at 30° C. for 1 hour, the reaction product was filtered through a 0.2-μm filter, and 50 μl of the resulting solution was injected into HPLC. A reaction mixture (prepared with the addition of PBS containing 20% glycerol instead of the TaQ8GTC1-R protein) and another reaction mixture (prepared with the addition of PBS containing 20% glycerol and sterile water instead of the TaQ8GTC1-R protein and glutathione, respectively) were prepared as control reaction mixture. […]\nSubsequently, the glutathione conjugation activity of the TaQ8GTC1-R protein to pyroxasulfone was examined. […] The amount of the protein added to the enzyme reaction mixture was determined to be 500 ng since about 50% of a total of 10 nmol of the added herbicides was converted into glutathione conjugates when the enzyme activity of the about 400 ng of TaQ8GTC0 (see Example 1) was inspected under the same conditions."}, "[2]": {"system": "transgenic rapeseed plants comprising the TaQ8GTC0 gene", "test": "Rapeseed sensitivity test 2 (agar medium), transgenic", "assay_type": "in vivo, Brassica napus", "conditions": "10 μM pyroxasulfone, 22° C., 2 weeks", "from_the_text": "In order to investigate the extent of pyroxasulfone resistance of the transgenic rapeseed plants comprising the […] gene introduced therein compared to wild-type plants, the growth of rapeseed was examined in an agar medium containing pyroxasulfone. Wild-type rapeseed plants (variety: Westar) and transgenic rapeseed plants comprising the TaQ8GTC0 gene introduced therein were subjected to the growth inhibitory test in an agar medium, so as to examine the resistance thereof to pyroxasulfone.\nThe medium (1 liter) used in the test was composed of 1× Murashige-Skoog (MS) media (a bag), thiamin hydrochloride (3 μg/ml), nicotinic acid (5 μg/ml), pyridoxin hydrochloride (0.5 μg/ml), and 1% (w/v) sucrose. The composition was added to a 1-liter beaker, a pH was adjusted to 5.7, and the volume of the composition was adjusted to 1 liter, followed by the addition of 8 g (0.8%) of agar. Thereafter, the composition was autoclaved, the temperature was cooled to room temperature, and pyroxasulfone (acetone solution) at a given concentration was added. […]\nThe sensitivity of rapeseed was examined in agar media comprising pyroxasulfone (0.1 μM, 1 μM, 10 μM, and 100 μM). […] Values in the table in FIGS. 41 and 42 are expressed as the mean±standard deviation (n=4 to 5). Values in FIG. 43 are expressed as the means (n=4 to 5)."}}}
{"smiles": "Cn1nc(C(F)(F)F)c(CS(=O)(=O)C2=NOC(C)(C)C2)c1OC(F)F", "note": "[Pyroxasulfone, 3-[5-(difluoromethoxy)-1-methyl-3-(trifluoromethyl)pyrazol-4-ylmethylsulfonyl]-4,5-dihydro-5,5-dimethyl-1,2-oxazole]", "values": [{"measurement": "sensitivity of the Arabidopsis thaliana plant comprising the TaQ8GTC0 gene to VLCFAE-inhibiting herbicides", "setting": "[1]; KLB-718 1-1-5, concentrations of Table 5, 22° C., 14 days", "result": "strong resistance"}, {"measurement": "pyroxasulfone resistance relative to wild-type (Columbia-0)", "setting": "[1]; all 7 lines used in the test", "result": "at least 10 times"}, {"measurement": "growth of the Arabidopsis thaliana plant comprising the TaQ8GTC0 gene", "setting": "[1]; pyroxasulfone 1 μM, 14 days", "result": "in the same manner as with the Control"}, {"measurement": "growth of the Arabidopsis thaliana plant comprising the TaQ8GTC0 gene", "setting": "[1]; pyroxasulfone 10 μM, 14 days", "result": "sufficiently grew"}, {"measurement": "glutathione conjugation activity to pyroxasulfone", "setting": "TaQ8GTC1-R protein; 500 ng TaQ8GTC1-R protein", "result": "did not possess glutathione conjugation activity"}, {"measurement": "pyroxasulfone added to the reaction mixture converted into M-15", "setting": "TaQ8GTC1-R protein; equivalent in enzyme reaction mixture (500 ng protein) and reaction mixture without enzyme", "result": "about 3%"}, {"measurement": "inhibition ratio on foliage leaf development", "setting": "[2]", "result": "1.2±2.7", "unit": "%"}, {"measurement": "inhibition ratio on plant height", "setting": "[2]", "result": "7.8±5.9", "unit": "%"}]}
